Tested on: wildtype Wnt signaling cascade
Assay: HEK293 TOP assay (Super TopFlash luciferase reporter, Wnt-3a stimulated)
Type: cell-based
Settings: Homo sapiens, HEK293, 16 h, HEK293 TOP reporter cells, Wnt3a at EC50, 16 hours
Outline: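 Compound series (50 μM down to 15 nM, 3.16-fold) diluted from DMSO 50-fold into CAFTY buffer, pH 7.4, 2 mM Ca^2+, 0.01% BSA, applied to Wnt-3a-stimulated HEK293 TopFlash and FOP reporter lines in parallel. Cells seeded 10000/well 24 h before; luciferase signal measured.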

Cc1nc2c(C(=O)N[C@H]3CC[C@H](C(=O)Nc4ccc(F)cc4Cl)CC3)cnn2c2c1CCC2 [Example 113, N-{trans-4-[(2-chloro-4-fluorophenyl)carbamoyl]cyclohexyl}-5-methyl-7,8-dihydro-6H-cyclopenta[e]pyrazolo[1,5-a]pyrimidine-3-carboxamide]
IC50: 0.094 µM

CC(O)CNc1ccc2ncc(C(=O)N[C@H]3CC[C@H](C(=O)Nc4ccc(F)cc4Cl)CC3)n2n1 (stereo partly drawn) [Example 114, N-{trans-4-[(2-chloro-4-fluorophenyl)carbamoyl]cyclohexyl}-6-[(2-hydroxypropyl)amino]imidazo[1,2-b]pyridazine-3-carboxamide]
IC50: 1.6 µM

CNC(=O)c1[nH]cnc1C(=O)NC12CCC(C(=O)Nc3ccc(F)cc3Cl)(CC1)CC2 [Example 115, N^4-{4-[(2-chloro-4-fluorophenyl)carbamoyl]bicyclo[2.2.2]oct-1-yl}-N^5-methyl-1H-imidazole-4,5-dicarboxamide]
IC50: 0.18 µM

CNC(=O)c1[nH]cnc1C(=O)NC12CCC(C(=O)Nc3c(F)cc(F)cc3Cl)(CC1)CC2 [Example 116, N^4-{4-[(2-chloro-4,6-difluorophenyl)carbamoyl]bicyclo[2.2.2]oct-1-yl}-N^5-methyl-1H-imidazole-4,5-dicarboxamide]
IC50: 0.33 µM

O=C(NC12CCC(C(=O)Nc3ccc(F)cc3Cl)(CC1)CC2)c1cnn2cccnc12 [Example 117, N-{4-[(2-chloro-4-fluorophenyl)carbamoyl]bicyclo[2.2.2]oct-1-yl}pyrazolo[1,5-a]pyrimidine-3-carboxamide]
IC50: 0.22 µM

Cc1cc(NC(=O)C23CCC(NC(=O)c4cnn5cccnc45)(CC2)CC3)c(Cl)cc1F [Example 118, N-{4-[(2-chloro-4-fluoro-5-methylphenyl)carbamoyl]bicyclo[2.2.2]oct-1-yl}pyrazolo[1,5-a]pyrimidine-3-carboxamide]
IC50: 0.3 µM

O=C(NC12CCC(C(=O)Nc3c(F)cc(F)cc3Cl)(CC1)CC2)c1cnn2cccnc12 [Example 119, N-{4-[(2-chloro-4,6-difluorophenyl)carbamoyl]bicyclo[2.2.2]oct-1-yl}pyrazolo[1,5-a]pyrimidine-3-carboxamide]
IC50: 0.39 µM

O=C(NC12CCC(C(=O)Nc3cnccc3Cl)(CC1)CC2)c1cnn2cccnc12 [Example 120, N-{4-[(4-chloropyridin-3-yl)carbamoyl]bicyclo[2.2.2]oct-1-yl}pyrazolo[1,5-a]pyrimidine-3-carboxamide]
IC50: 0.14 µM

O=C(NC12CCC(C(=O)Nc3ccc(F)cc3Cl)(CC1)CC2)c1cnc2cccnn12 [Example 121, N-{4-[(2-chloro-4-fluorophenyl)carbamoyl]bicyclo[2.2.2]oct-1-yl}imidazo[1,2-b]pyridazine-3-carboxamide]
IC50: 0.03 µM

Cc1cc(NC(=O)C23CCC(NC(=O)c4cnc5cccnn45)(CC2)CC3)c(Cl)cc1F [Example 122, N-{4-[(2-chloro-4-fluoro-5-methylphenyl)carbamoyl]bicyclo[2.2.2]oct-1-yl}imidazo[1,2-b]pyridazine-3-carboxamide]
IC50: 0.47 µM

O=C(NC12CCC(C(=O)Nc3c(F)cc(F)cc3Cl)(CC1)CC2)c1cnc2cccnn12 [Example 123, N-{4-[(2-chloro-4,6-difluorophenyl)carbamoyl]bicyclo[2.2.2]oct-1-yl}imidazo[1,2-b]pyridazine-3-carboxamide]
IC50: 0.66 µM

O=C(NC12CCC(C(=O)Nc3cnccc3Cl)(CC1)CC2)c1cnc2cccnn12 [Example 124, N-{4-[(4-chloropyridin-3-yl)carbamoyl]bicyclo[2.2.2]oct-1-yl}imidazo[1,2-b]pyridazine-3-carboxamide]
IC50: 0.29 µM

Cc1cc(C)n2ncc(C(=O)NC34CCC(C(=O)Nc5ccc(F)cc5Cl)(CC3)CC4)c2n1 [Example 125, N-{4-[(2-chloro-4-fluorophenyl)carbamoyl]bicyclo[2.2.2]oct-1-yl}-5,7-dimethylpyrazolo[1,5-a]pyrimidine-3-carboxamide]
IC50: 0.069 µM

Cc1cc(C)n2ncc(C(=O)NC34CCC(C(=O)Nc5cc(C)c(F)cc5Cl)(CC3)CC4)c2n1 [Example 126, N-{4-[(2-chloro-4-fluoro-5-methylphenyl)carbamoyl]bicyclo[2.2.2]oct-1-yl}-5,7-dimethylpyrazolo[1,5-a]pyrimidine-3-carboxamide]
IC50: 0.19 µM

Cc1cc(C)n2ncc(C(=O)NC34CCC(C(=O)Nc5c(F)cc(F)cc5Cl)(CC3)CC4)c2n1 [Example 127, N-{4-[(2-chloro-4,6-difluorophenyl)carbamoyl]bicyclo[2.2.2]oct-1-yl}-5,7-dimethylpyrazolo[1,5-a]pyrimidine-3-carboxamide]
IC50: 0.22 µM

Cc1cc(C)n2ncc(C(=O)NC34CCC(C(=O)Nc5cnccc5Cl)(CC3)CC4)c2n1 [Example 128, N-{4-[(4-chloropyridin-3-yl)carbamoyl]bicyclo[2.2.2]oct-1-yl}-5,7-dimethylpyrazolo[1,5-a]pyrimidine-3-carboxamide]
IC50: 0.24 µM

O=C(NCC1CCCO1)c1nc[nH]c1C(=O)N[C@H]1CC[C@H](C(=O)Nc2cc(F)ccc2Cl)CC1 (stereo partly drawn) [Example 129, N^5-{trans-4-[(2-chloro-5-fluorophenyl)carbamoyl]cyclohexyl}-N^4-(tetrahydrofuran-2-ylmethyl)-1H-imidazole-4,5-dicarboxamide]
IC50: 0.41 µM

O=C(N[C@H]1CC[C@H](C(=O)Nc2cc(F)c(F)cc2Cl)CC1)c1cnn2cccnc12 [Example 130, N-{trans-4-[(2-chloro-4,5-difluorophenyl)carbamoyl]cyclohexyl}pyrazolo[1,5-a]pyrimidine-3-carboxamide]
IC50: 0.022 µM

O=C(N[C@H]1CC[C@H](C(=O)Nc2cc(F)c(F)cc2Cl)CC1)c1cnc2cccnn12 [Example 132, N-{trans-4-[(2-chloro-4,5-difluorophenyl)carbamoyl]cyclohexyl}imidazo[1,2-b]pyridazine-3-carboxamide]
IC50: 0.051 µM

O=C(N[C@H]1CC[C@H](C(=O)Nc2c(F)cc(F)cc2Cl)CC1)c1cnc2cccnn12 [Example 133, N-{trans-4-[(2-chloro-4,6-difluorophenyl)carbamoyl]cyclohexyl}imidazo[1,2-b]pyridazine-3-carboxamide]
IC50: 0.29 µM

Cc1cc(C)n2ncc(C(=O)N[C@H]3CC[C@H](C(=O)Nc4cc(F)c(F)cc4Cl)CC3)c2n1 [Example 134, N-{trans-4-[(2-chloro-4,5-difluorophenyl)carbamoyl]cyclohexyl}-5,7-dimethylpyrazolo[1,5-a]pyrimidine-3-carboxamide]
IC50: 0.14 µM

Cc1cc(C)n2ncc(C(=O)N[C@H]3CC[C@H](C(=O)Nc4c(F)cc(F)cc4Cl)CC3)c2n1 [Example 135, N-{trans-4-[(2-chloro-4,6-difluorophenyl)carbamoyl]cyclohexyl}-5,7-dimethylpyrazolo[1,5-a]pyrimidine-3-carboxamide]
IC50: 0.038 µM

O=C(N[C@H]1CC[C@@]2(CCN(c3ccc(F)cc3Cl)C2=O)CC1)c1cnn2cccnc12 [Example 136, N-[(trans)-2-(2-chloro-4-fluorophenyl)-1-oxo-2-azaspiro[4.5]dec-8-yl]pyrazolo[1,5-a]pyrimidine-3-carboxamide]
IC50: 0.0012 µM

Cc1cnc2c(C(=O)N[C@H]3CC[C@@]4(CCN(c5ccc(F)cc5Cl)C4=O)CC3)cnn2c1 [Example 137, N-[(trans)-2-(2-chloro-4-fluorophenyl)-1-oxo-2-azaspiro[4.5]dec-8-yl]-6-methylpyrazolo[1,5-a]pyrimidine-3-carboxamide]
IC50: 5 µM

O=C(N[C@H]1CC[C@@]2(CCN(c3ccc(F)cc3Cl)C2=O)CC1)c1cnc2cccnn12 [Example 138, N-[(trans)-2-(2-chloro-4-fluorophenyl)-1-oxo-2-azaspiro[4.5]dec-8-yl]imidazo[1,2-b]pyridazine-3-carboxamide]
IC50: 0.0061 µM

Cc1cc(C)n2ncc(C(=O)N[C@H]3CC[C@@]4(CCN(c5ccc(F)cc5Cl)C4=O)CC3)c2n1 [Example 139, N-[(trans)-2-(2-chloro-4-fluorophenyl)-1-oxo-2-azaspiro[4.5]dec-8-yl]-5,7-dimethylpyrazolo[1,5-a]pyrimidine-3-carboxamide]
IC50: 0.0011 µM

CNC(=O)c1[nH]cnc1C(=O)N[C@H]1CC[C@@]2(CCN(c3ccc(F)cc3Cl)C2=O)CC1 [Example 140, N^4-[(trans)-2-(2-chloro-4-fluorophenyl)-1-oxo-2-azaspiro[4.5]dec-8-yl]-N^5-methyl-1H-imidazole-4,5-dicarboxamide]
IC50: 0.00086 µM

CCNC(=O)c1[nH]cnc1C(=O)N[C@H]1CC[C@@]2(CCN(c3ccc(F)cc3Cl)C2=O)CC1 [Example 141, N^4-[(trans)-2-(2-chloro-4-fluorophenyl)-1-oxo-2-azaspiro[4.5]dec-8-yl]-N^5-ethyl-1H-imidazole-4,5-dicarboxamide]
IC50: 0.0018 µM

CNC(=O)c1nc[nH]c1C(=O)N[C@H]1CC[C@H](C(=O)Nc2cc(C(F)(F)F)ccc2Cl)CC1 [Example 142, N^5-(trans-4-{[2-chloro-5-(trifluoromethyl)phenyl]carbamoyl}cyclohexyl)-N^4-methyl-1H-imidazole-4,5-dicarboxamide]
IC50: 0.068 µM

COCC(C)NC(=O)c1nc[nH]c1C(=O)N[C@H]1CC[C@H](C(=O)Nc2cc(C(F)(F)F)ccc2Cl)CC1 (stereo partly drawn) [Example 143, N^5-(trans-4-{[2-chloro-5-(trifluoromethyl)phenyl]carbamoyl}cyclohexyl)-N^4-(1-methoxypropan-2-yl)-1H-imidazole-4,5-dicarboxamide]
IC50: 0.22 µM

COC(C)(C)CNC(=O)c1nc[nH]c1C(=O)N[C@H]1CC[C@H](C(=O)Nc2cc(C(F)(F)F)ccc2Cl)CC1 [Example 144, N^5-(trans-4-{[2-chloro-5-(trifluoromethyl)phenyl]carbamoyl}cyclohexyl)-N^4-(2-methoxy-2-methylpropyl)-1H-imidazole-4,5-dicarboxamide]
IC50: 0.25 µM

CC(C)(O)CNC(=O)c1nc[nH]c1C(=O)N[C@H]1CC[C@H](C(=O)Nc2cc(C(F)(F)F)ccc2Cl)CC1 [Example 145, N^5-(trans-4-{[2-chloro-5-(trifluoromethyl)phenyl]carbamoyl}cyclohexyl)-N^4-(2-hydroxy-2-methylpropyl)-1H-imidazole-4,5-dicarboxamide]
IC50: 0.15 µM

— patent US20180148418A1, “AMIDO-SUBSTITUTED CYCLOHEXANE DERIVATIVES” (Bayer Pharma Aktiengesellschaft, priority 2015, published 2018)
